Paper PMC4822888, “Subtype-Selective Small Molecule Inhibitors Reveal a Fundamental Role for Nav1.7 in Nociceptor Electrogenesis, Axonal Conduction and Presynaptic Release” (PLoS ONE, 2016)

Experiments:
Kappa opioid receptor = Kappa opioid receptor (Homo sapiens, UniProt P41145); test: Off target panel, functional activity (agonist/antagonist); format: biochemical; details: at 10 µM
cynNav1.7 = cynNav1.7 (Macaca fascicularis, UniProt A0A2K5WIF4); test: cell-based; format: cell-based, cynomologus macaque
PDE6 = test: Off target activity panel; format: biochemical; details: 10 µM
Neurokinin NK1 receptor = Neurokinin NK1 receptor (Homo sapiens, UniProt P25103); test: Off target activity panel; format: binding; details: read-out: Inhibition at test concentration (%)
Urotensin receptor = Urotensin receptor (Homo sapiens, UniProt Q9UKP6); test: Off target activity panel; format: binding; details: read-out: Inhibition at test concentration (%)
Mu opiod receptor = Mu opiod receptor (Homo sapiens, UniProt P35372); test: Off target activity panel; format: binding; details: read-out: Inhibition at test concentration (%)
[1] = system: Calcium channel L-type (dihydropyridine site); test: Off target activity panel; format: binding; details: 10 µM
[2] = target: Melanin-concentrating hormone receptor 1 (Homo sapiens, UniProt Q99705); test: Off target activity panel; format: binding; details: read-out: Inhibition at test concentration (%)
Melanocortin 4 receptor = Melanocortin 4 receptor (Homo sapiens, UniProt P32245); test: Off target activity panel; format: binding; details: read-out: Inhibition at test concentration (%)
Serotinin 5-HT2B = Serotinin 5-HT2B (Homo sapiens, UniProt P41595); test: Off target activity panel; format: binding; details: read-out: Inhibition at test concentration (%)
Serotonin 5-HT4 = Serotonin 5-HT4 (Homo sapiens, UniProt Q13639); test: Off target activity panel; format: binding; details: read-out: Inhibition at test concentration (%)
[3] = target: Adrenergic alpha 2A receptor (Homo sapiens, UniProt P08913); test: Off target activity panel; format: binding; details: read-out: Inhibition at test concentration (%)
Adenosine A2a receptor = Adenosine A2a receptor (Homo sapiens, UniProt P29274); test: Off target activity panel; format: binding; details: read-out: Inhibition at test concentration (%)
[4] = target: Adrenergic alpha 2B receptor (Homo sapiens, UniProt P18089); test: Off target activity panel; format: binding; details: read-out: Inhibition at test concentration (%)
Serotonin 5-HT2C [5] = target: T1, Serotonin 5-HT2C (Homo sapiens, UniProt P28335); test: Off target activity panel (first 5-HT2C line); format: binding; details: read-out: Inhibition at test concentration (%)
Serotonin 5-HT2C [6] = target: T1, Serotonin 5-HT2C; test: Off target activity panel (second 5-HT2C line); format: binding; details: read-out: Inhibition at test concentration (%)
GABA Benzodiazepine site = test: Off target activity panel; format: binding; details: 10 µM
Dopamine D3 receptor = Dopamine D3 receptor (Homo sapiens, UniProt P35462); test: Off target activity panel; format: binding; details: read-out: Inhibition at test concentration (%)
FLT-1 kinase = FLT-1 kinase (Homo sapiens, UniProt P17948); test: Off target activity panel; format: biochemical; details: read-out: Inhibition at test concentration (%)
[7] = target: Beta 1 adrenergic receptor (Homo sapiens, UniProt P08588); test: Off target activity panel; format: binding; details: read-out: Inhibition at test concentration (%)
Histamine H2 receptor = Histamine H2 receptor (Homo sapiens, UniProt P25021); test: Off target activity panel; format: binding; details: read-out: Inhibition at test concentration (%)
human TRPV1 receptor = human TRPV1 receptor (Homo sapiens, UniProt Q8NER1); test: Blockade of human TRPV1 receptor
[8] = target: Cholycystokinin 1 (CCKA) receptor (Homo sapiens, UniProt P32238); test: Off target activity panel; format: binding; details: read-out: Inhibition at test concentration (%)
Histamine H3 receptor = Histamine H3 receptor (Homo sapiens, UniProt Q9Y5N1); test: Off target activity panel; format: binding; details: read-out: Inhibition at test concentration (%)
[9] = system: Cloride channel (GABA-gated); test: Off target activity panel; format: binding
Adenosine A3 receptor = Adenosine A3 receptor (Homo sapiens, UniProt P0DMS8); test: Off target activity panel; format: binding; details: read-out: Inhibition at test concentration (%)
Cannabinoid receptor 1 = Cannabinoid receptor 1 (Homo sapiens, UniProt P21554); test: Off target activity panel; format: binding; details: read-out: Inhibition at test concentration (%)
Monoamine oxidase A = Monoamine oxidase A (Homo sapiens, UniProt P21397); test: Off target activity panel; format: biochemical; details: read-out: Inhibition at test concentration (%)
Neurokinin NK2 receptor = Neurokinin NK2 receptor (Homo sapiens, UniProt P21452); test: Off target activity panel; format: binding; details: read-out: Inhibition at test concentration (%)
Serotonin 5-HT1A = Serotonin 5-HT1A (Homo sapiens, UniProt P08908); test: Off target activity panel; format: binding; details: read-out: Inhibition at test concentration (%)
Serotonin 5-HT6 = Serotonin 5-HT6 (Homo sapiens, UniProt P50406); test: Off target activity panel; format: binding; details: read-out: Inhibition at test concentration (%)
Carbonic anhydrase II = Carbonic anhydrase II (Homo sapiens, UniProt P00918); test: Off target activity panel; format: biochemical; details: read-out: Inhibition at test concentration (%)
[10] = system: Calcium channel L-type (verapamil site); test: Off target activity panel; format: binding; details: 10 µM
Serotonin 5-HT1B = Serotonin 5-HT1B (Homo sapiens, UniProt P28222); test: Off target activity panel; format: binding; details: read-out: Inhibition at test concentration (%)
Histamine H1 receptor = Histamine H1 receptor (Homo sapiens, UniProt P35367); test: Off target activity panel; format: binding; details: read-out: Inhibition at test concentration (%)
PDE11 = PDE11 (Homo sapiens, UniProt Q9HCR9); test: Off target activity panel; format: biochemical; details: read-out: Inhibition at test concentration (%)
hERG potassium channels = hERG potassium channels (Homo sapiens, UniProt Q12809)
Matrix metalloprotease 9 = Matrix metalloprotease 9 (Homo sapiens, UniProt P14780); test: Off target activity panel; format: biochemical; details: read-out: Inhibition at test concentration (%)
[11] = system: Nictotinic acetylcholine receptor; test: Off target activity panel; format: binding; details: 10 µM
[12] = target: Cholycystokinin 2 (CCKB) receptor (Homo sapiens, UniProt P32239); test: Off target activity panel; format: binding; details: read-out: Inhibition at test concentration (%)

Q: What does the source list for `Nc1[nH]ncc1-c1cc(Cl)ccc1Oc1cc(F)c(S(=O)(=O)Nc2cscn2)cc1Cl` [PF-05089771, 4-[2-(5-amino-1H-pyrazol-4-yl)-4-chlorophenoxy]-5-chloro-2-fluoro-N-(1,3-thiazol-4-yl)benzenesulfonamide]?
A: Functional activity (Kappa opioid receptor): no agonist or antagonist activity at 10 µM; IC50 (cynNav1.7): 0.012 µM; Slope (cynNav1.7; cynNav1.7): 1.1; Inhibition at test concentration (%) (PDE6): 7%; inhibition at 10 µM (Neurokinin NK1 receptor): 5%; inhibition at 10 µM (Urotensin receptor): 32%; inhibition at 10 µM (Mu opiod receptor): 7%; Inhibition at test concentration (%) [1]: 4%; inhibition at 10 µM [2]: -7%; inhibition at 10 µM (Melanocortin 4 receptor): -11%; inhibition at 10 µM (Serotinin 5-HT2B): -6%; inhibition at 10 µM (Serotonin 5-HT4): -7%; inhibition at 10 µM [3]: 10%; inhibition at 10 µM (Adenosine A2a receptor): 15%; inhibition at 10 µM [4]: 24%; inhibition at 10 µM (Serotonin 5-HT2C [5]): -4%; inhibition at 10 µM (Serotonin 5-HT2C [6]): 4%; Inhibition at test concentration (%) (GABA Benzodiazepine site): 5%; inhibition at 10 µM (Dopamine D3 receptor): 16%; inhibition at 10 µM (FLT-1 kinase): 14%; inhibition at 10 µM [7]: 12%; inhibition at 10 µM (Histamine H2 receptor): -3%; Functional activity (human TRPV1 receptor; at 20 µM, TRPV1): No agonist or antagonist activity at 20 µM; Blockade of human TRPV1 receptor (human TRPV1 receptor; tested concentrations up to 20 μM): No blockade; inhibition at 10 µM [8]: 17%; inhibition at 10 µM (Histamine H3 receptor): 10%; Inhibition at test concentration (%) ([9]; 10 µM): 54%; Ki ([9]; Cloride channel (GABA-gated)): 8.3 µM; inhibition at 10 µM (Adenosine A3 receptor): 4%; inhibition at 10 µM (Cannabinoid receptor 1): 0%; inhibition at 10 µM (Monoamine oxidase A): -13%; inhibition at 10 µM (Neurokinin NK2 receptor): -10%; inhibition at 10 µM (Serotonin 5-HT1A): 13%; inhibition at 10 µM (Serotonin 5-HT6): 2%; inhibition at 10 µM (Carbonic anhydrase II): 21%; Inhibition at test concentration (%) [10]: -6%; inhibition at 10 µM (Serotonin 5-HT1B): 6%; inhibition at 10 µM (Histamine H1 receptor): 12%; inhibition at 10 µM (PDE11): 6%; IC50 (hERG potassium channels): 10 µM; inhibition at 10 µM (Matrix metalloprotease 9): -3%; Inhibition at test concentration (%) [11]: -7%; inhibition at 10 µM [12]: 13%
